{
  "source": "patent US4096252A",
  "about": "“4-Trifluoromethylbenzoic acid derivatives as thromboembolic agents” (priority 1976, dated 1978)",
  "key": {"rat platelet aggregation": {"system": "rat platelet aggregation", "assay": "In vitro inhibition of rat platelet aggregation (Born and Cross method)", "type": "cell-based", "settings": "Rattus norvegicus, Platelet, rat plasma, read-out: Platelet Aggregation Inhibition (PAI); for inhibition at 8300 µM: plasma concentration 8.30×10^-3 molar", "protocol": "Platelet aggregation was measured according to the method of Born and Cross (8) by using rat and human plasma."}, "[1]": {"system": "human platelet aggregation", "assay": "In vitro inhibition of human platelet aggregation (Born and Cross method)", "type": "cell-based", "settings": "read-out: Platelet Aggregation Inhibition (PAI); for inhibition at 8300 µM: plasma concentration 8.30×10^-3 molar", "protocol": "Platelet aggregation was measured according to the method of Born and Cross (8) by using rat and human plasma. The results are summarized below in Tables I and II.\nKey : PC = Plasma Concentration: PAI = Platelet Aggregation\n*The percent of inhibition was calculated using the method described by\nMcKenzie (Proc. Soc. Exp. Biol. Med. 137: 662, 1971)."}, "gastric mucosa": {"system": "gastric mucosa", "settings": "rat, in vivo", "protocol": "For this reason this compound has not been included in further in vivo experimentation. However, the other two compounds were well tolerated and satisfactory low acute toxicity values were found (approximately 500 mg/kg for both substances)."}},
  "note": "Where two headings read alike, the source gives them in different places.",
  "data": [
    {"smiles": "O=C(O)c1ccc(C(F)(F)F)cc1O", "note": "[2-hydroxy-4-trifluoromethylbenzoic acid]", "values": [
      {"measurement": "inhibition at 6250 µM", "setting": "rat platelet aggregation; ADP 4.1×10^-6 M, plasma concentration 6.25×10^-3 molar", "result": 60.2, "unit": "%"},
      {"measurement": "inhibition at 8300 µM", "setting": "rat platelet aggregation; ADP 4.1×10^-6 M", "result": 89.2, "unit": "%"},
      {"measurement": "inhibition at 4150 µM", "setting": "rat platelet aggregation; Collagen 33.3 μg/ml, plasma concentration 4.15×10^-3 molar", "result": 27.2, "unit": "%"},
      {"measurement": "inhibition at 8300 µM", "setting": "rat platelet aggregation; Collagen 33.3 μg/ml", "result": 48.3, "unit": "%"},
      {"measurement": "inhibition at 6250 µM", "setting": "[1]; ADP 1.6×10^-6 M, plasma concentration 6.25×10^-3 molar", "result": 70, "unit": "%"},
      {"measurement": "inhibition at 8300 µM", "setting": "[1]; ADP 1.6×10^-6 M", "result": 100, "unit": "%"},
      {"measurement": "inhibition at 8300 µM", "setting": "[1]; Collagen 33.3 mcg/ml", "result": 58, "unit": "%"},
      {"measurement": "inhibition at 17000 µM", "setting": "[1]; Collagen 33.3 mcg/ml, plasma concentration 17.0×10^-3 molar", "result": 75, "unit": "%"},
      {"measurement": "inhibition at 3300 µM", "setting": "[1]; Epinephrine 1.4×10^-6 M, plasma concentration 3.30×10^-3 molar", "result": 32, "unit": "%"},
      {"measurement": "inhibition at 8100 µM", "setting": "[1]; Epinephrine 1.4×10^-6 M, plasma concentration 8.10×10^-3 molar", "result": 91, "unit": "%"},
      {"measurement": "gastro-intestinal disturbances (in words)", "setting": "gastric mucosa", "result": "high incidence of serious gastro-intestinal disturbances, including bleeding of the gastric mucosa and peptic ulcers"}
    ]}
  ]
}
